Reference: PMC8058163 (Clinical pharmacology and therapeutics, 2020)
Several values for one entry are separate records, joined by “and”; a condition that tells them apart may be missing. Equal values may be shown once. Read-outs that look alike come from different tables or passages of the source.

Columns and labels:
NTCP = target: T1, NTCP (Homo sapiens, UniProt Q14973); experiment: Transporter inhibition assay, NTCP; assay type: cell-based; details: alkaloids screened at 10 and 100 μM
T1 sequence (Q14973 1-349): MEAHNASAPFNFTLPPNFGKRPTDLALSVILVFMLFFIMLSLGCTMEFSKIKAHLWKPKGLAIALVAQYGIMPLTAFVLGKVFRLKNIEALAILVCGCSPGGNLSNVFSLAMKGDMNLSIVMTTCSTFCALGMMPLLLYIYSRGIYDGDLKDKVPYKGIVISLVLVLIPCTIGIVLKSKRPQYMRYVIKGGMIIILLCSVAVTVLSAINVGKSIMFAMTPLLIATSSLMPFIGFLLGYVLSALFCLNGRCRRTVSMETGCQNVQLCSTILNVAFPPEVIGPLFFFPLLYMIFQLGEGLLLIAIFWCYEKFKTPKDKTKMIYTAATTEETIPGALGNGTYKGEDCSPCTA

OAT3 = target: T2, OAT3 (Homo sapiens, UniProt Q8TCC7); experiment: Transporter inhibition assay, OAT3
T2 sequence (Q8TCC7 1-542): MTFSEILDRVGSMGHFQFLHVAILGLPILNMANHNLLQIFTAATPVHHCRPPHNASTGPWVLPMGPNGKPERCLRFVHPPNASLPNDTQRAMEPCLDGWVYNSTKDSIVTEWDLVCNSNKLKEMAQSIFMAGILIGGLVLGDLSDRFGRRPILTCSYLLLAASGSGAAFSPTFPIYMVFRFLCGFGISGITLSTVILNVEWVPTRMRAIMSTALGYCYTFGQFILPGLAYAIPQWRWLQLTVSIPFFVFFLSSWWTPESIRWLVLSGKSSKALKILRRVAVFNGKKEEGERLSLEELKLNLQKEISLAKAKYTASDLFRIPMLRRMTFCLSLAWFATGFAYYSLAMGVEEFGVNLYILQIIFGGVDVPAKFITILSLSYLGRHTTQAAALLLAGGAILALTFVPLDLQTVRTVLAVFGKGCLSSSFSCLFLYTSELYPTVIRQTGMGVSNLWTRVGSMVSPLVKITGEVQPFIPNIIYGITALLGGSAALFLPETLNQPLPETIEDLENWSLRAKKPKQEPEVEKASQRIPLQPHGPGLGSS

BSEP = BSEP (Homo sapiens, UniProt O95342); experiment: Transporter inhibition assay, BSEP
MRP2 = MRP2 (Homo sapiens, UniProt Q92887); experiment: Transporter inhibition assay, MRP2
MRP3 = MRP3 (Homo sapiens, UniProt O15438); experiment: Transporter inhibition assay, MRP3
MATE1 = target: T3, MATE1 (Homo sapiens, UniProt Q96FL8); experiment: Transporter inhibition assay, MATE1
T3 sequence (Q96FL8 1-570): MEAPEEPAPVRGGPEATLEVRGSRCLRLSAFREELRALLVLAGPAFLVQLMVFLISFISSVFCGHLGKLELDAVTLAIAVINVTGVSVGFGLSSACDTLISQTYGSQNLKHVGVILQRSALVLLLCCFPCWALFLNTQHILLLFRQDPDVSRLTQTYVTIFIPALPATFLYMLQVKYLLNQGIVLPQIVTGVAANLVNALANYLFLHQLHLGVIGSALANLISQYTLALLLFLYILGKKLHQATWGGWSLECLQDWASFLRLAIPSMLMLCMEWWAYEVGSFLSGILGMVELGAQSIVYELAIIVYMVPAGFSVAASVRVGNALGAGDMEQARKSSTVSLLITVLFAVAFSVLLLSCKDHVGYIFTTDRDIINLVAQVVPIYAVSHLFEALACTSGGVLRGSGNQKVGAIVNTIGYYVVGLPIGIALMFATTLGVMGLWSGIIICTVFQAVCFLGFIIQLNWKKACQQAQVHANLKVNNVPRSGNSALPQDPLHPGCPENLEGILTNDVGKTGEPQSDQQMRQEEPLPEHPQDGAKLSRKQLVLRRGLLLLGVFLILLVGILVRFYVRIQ

BCRP = target: T4, BCRP (Homo sapiens, UniProt Q9UNQ0); experiment: Vesicular transport inhibition assay, BCRP
T4 sequence (Q9UNQ0 1-655): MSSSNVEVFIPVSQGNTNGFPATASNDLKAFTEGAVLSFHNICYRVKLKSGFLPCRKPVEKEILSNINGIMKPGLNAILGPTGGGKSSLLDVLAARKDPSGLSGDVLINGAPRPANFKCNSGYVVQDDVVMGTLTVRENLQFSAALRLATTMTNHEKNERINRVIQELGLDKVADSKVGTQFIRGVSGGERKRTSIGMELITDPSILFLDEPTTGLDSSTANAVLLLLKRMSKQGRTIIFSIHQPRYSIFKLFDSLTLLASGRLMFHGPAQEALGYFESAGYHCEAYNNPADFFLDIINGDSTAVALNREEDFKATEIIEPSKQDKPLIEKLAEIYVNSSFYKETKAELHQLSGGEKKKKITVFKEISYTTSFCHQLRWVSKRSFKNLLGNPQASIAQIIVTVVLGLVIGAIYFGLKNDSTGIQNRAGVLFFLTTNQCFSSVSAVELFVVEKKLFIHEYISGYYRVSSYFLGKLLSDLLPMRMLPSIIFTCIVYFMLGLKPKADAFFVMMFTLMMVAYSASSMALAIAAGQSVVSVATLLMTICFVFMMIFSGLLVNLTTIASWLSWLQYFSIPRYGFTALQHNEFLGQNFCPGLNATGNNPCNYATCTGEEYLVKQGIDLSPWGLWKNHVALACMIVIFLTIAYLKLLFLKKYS

Sequence of MRP3 (O15438 whole entry): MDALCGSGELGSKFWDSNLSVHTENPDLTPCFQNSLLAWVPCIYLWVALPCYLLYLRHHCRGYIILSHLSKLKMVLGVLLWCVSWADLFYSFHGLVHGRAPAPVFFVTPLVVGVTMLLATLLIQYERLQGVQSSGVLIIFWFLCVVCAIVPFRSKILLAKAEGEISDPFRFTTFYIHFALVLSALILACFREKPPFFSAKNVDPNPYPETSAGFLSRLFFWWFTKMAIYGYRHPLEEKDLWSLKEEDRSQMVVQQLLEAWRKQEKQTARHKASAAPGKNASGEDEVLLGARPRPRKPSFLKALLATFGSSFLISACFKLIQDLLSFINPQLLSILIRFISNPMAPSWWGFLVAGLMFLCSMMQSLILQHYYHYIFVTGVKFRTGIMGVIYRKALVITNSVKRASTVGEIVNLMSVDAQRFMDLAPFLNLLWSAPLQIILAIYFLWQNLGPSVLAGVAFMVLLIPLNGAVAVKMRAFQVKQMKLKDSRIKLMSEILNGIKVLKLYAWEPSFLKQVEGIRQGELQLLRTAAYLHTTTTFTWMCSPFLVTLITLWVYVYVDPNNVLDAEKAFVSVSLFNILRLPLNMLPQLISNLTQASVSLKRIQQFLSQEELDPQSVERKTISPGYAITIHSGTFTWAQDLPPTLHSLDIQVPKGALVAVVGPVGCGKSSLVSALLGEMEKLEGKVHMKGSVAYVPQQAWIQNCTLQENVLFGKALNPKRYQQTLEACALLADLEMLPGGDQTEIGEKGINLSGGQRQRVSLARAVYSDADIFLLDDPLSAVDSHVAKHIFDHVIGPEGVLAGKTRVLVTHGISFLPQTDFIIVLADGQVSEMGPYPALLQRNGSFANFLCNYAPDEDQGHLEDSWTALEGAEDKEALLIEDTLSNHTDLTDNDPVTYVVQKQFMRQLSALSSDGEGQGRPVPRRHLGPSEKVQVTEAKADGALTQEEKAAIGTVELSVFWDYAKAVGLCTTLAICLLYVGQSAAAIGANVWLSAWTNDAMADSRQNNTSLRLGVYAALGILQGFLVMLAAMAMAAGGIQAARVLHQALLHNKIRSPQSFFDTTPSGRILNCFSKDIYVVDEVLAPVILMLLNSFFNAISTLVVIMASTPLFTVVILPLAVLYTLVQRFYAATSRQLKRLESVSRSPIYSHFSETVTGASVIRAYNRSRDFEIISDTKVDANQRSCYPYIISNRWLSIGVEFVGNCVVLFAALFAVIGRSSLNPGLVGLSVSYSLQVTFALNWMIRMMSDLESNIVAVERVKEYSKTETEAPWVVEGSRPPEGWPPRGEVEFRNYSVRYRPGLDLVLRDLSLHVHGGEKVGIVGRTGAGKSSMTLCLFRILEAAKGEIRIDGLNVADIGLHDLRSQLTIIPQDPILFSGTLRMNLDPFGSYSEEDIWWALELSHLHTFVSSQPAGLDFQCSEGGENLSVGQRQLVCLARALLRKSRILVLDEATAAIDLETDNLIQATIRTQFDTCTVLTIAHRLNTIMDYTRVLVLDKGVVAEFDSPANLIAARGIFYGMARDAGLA
Sequence of MRP2 (Q92887 whole entry): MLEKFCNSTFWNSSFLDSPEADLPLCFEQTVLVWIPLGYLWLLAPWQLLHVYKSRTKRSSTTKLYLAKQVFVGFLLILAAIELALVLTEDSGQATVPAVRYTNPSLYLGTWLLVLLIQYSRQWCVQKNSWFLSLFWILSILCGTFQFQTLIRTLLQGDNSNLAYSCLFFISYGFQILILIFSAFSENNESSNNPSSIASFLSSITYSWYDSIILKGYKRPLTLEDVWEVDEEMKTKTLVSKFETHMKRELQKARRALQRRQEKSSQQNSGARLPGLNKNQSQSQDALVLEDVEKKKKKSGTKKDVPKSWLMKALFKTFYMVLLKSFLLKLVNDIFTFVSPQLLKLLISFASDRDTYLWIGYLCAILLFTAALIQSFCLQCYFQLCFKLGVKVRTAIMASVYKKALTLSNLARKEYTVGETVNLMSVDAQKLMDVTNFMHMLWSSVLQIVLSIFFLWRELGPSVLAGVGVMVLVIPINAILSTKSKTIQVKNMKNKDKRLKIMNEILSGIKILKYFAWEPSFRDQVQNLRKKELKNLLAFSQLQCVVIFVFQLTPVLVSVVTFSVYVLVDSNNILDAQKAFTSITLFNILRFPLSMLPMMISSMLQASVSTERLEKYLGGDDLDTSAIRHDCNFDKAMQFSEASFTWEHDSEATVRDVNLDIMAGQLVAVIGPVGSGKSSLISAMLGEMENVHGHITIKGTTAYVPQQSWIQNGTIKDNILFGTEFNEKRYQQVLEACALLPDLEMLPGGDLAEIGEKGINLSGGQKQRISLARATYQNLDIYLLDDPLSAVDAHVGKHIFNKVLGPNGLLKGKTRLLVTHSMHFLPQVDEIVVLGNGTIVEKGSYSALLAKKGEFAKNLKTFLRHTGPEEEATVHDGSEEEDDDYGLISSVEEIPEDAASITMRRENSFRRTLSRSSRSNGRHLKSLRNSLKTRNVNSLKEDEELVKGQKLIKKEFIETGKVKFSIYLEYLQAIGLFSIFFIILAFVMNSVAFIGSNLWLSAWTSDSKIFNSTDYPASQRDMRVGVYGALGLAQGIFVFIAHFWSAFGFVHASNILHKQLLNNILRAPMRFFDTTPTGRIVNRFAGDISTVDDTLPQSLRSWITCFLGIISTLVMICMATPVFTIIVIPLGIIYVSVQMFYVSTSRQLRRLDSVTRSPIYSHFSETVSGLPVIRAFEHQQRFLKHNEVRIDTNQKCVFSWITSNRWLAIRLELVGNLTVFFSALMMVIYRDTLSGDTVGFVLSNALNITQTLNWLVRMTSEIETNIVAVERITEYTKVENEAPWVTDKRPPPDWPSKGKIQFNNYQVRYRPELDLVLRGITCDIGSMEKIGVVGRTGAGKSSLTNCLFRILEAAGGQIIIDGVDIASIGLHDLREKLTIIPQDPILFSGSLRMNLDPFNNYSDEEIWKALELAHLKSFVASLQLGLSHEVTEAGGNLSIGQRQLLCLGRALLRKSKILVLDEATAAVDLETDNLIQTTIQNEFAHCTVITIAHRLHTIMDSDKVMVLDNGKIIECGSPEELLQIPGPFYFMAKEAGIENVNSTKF
Sequence of BSEP (O95342 whole entry): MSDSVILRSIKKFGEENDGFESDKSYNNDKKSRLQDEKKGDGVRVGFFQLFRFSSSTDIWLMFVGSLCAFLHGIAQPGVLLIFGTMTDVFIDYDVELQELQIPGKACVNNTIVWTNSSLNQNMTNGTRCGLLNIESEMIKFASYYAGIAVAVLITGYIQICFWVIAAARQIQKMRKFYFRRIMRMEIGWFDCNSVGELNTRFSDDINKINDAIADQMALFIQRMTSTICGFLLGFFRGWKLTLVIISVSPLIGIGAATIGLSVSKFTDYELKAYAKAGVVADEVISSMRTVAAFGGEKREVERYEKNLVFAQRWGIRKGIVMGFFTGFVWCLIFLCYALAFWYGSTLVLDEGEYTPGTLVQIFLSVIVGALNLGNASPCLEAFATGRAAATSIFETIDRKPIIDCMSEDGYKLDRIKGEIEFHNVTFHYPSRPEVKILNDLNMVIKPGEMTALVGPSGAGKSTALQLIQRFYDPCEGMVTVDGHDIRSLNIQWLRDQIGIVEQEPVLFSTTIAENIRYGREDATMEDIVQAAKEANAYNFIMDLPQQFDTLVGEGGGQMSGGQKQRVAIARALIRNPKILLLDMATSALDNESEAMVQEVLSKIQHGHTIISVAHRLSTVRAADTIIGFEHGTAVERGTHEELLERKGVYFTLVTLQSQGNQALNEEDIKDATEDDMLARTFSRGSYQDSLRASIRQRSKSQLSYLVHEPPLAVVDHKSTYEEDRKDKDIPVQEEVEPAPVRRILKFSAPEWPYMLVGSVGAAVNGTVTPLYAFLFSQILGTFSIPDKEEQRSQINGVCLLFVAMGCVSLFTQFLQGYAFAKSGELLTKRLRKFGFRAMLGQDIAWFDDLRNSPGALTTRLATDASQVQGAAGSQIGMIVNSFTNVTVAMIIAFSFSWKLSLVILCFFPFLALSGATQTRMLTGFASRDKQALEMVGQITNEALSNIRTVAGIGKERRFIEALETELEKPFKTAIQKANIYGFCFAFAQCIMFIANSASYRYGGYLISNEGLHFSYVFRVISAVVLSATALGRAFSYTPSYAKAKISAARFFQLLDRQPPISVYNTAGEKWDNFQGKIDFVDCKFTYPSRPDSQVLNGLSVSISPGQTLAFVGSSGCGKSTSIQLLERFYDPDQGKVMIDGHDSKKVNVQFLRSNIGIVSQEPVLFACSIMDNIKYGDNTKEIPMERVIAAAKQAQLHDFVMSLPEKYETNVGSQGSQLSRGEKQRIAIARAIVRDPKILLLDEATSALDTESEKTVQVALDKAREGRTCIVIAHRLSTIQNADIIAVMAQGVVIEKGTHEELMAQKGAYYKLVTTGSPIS

| SMILES | inhibition at the highest concentration tested (NTCP) | IC50 (OAT3; OAT3, isolated alkaloids, mean [95% CI], three technical replicates) [µM] | inhibition at the highest concentration tested (BSEP; BSEP, alkaloids screened at 10 and 100 μM) | inhibition at the highest concentration tested (MRP2; MRP2, alkaloids screened at 10 and 100 μM) | inhibition at the highest concentration tested (MRP3; MRP3, alkaloids screened at 10 and 100 μM) | IC50 (MATE1; MATE1, isolated alkaloids, mean [95% CI], three technical replicates) [µM] | IC50 (BCRP; BCRP, isolated alkaloids, mean [95% CI], three technical replicates) [µM] | IC50 (OAT3) [µM] | inhibition at 100 μM (BSEP) [%] | inhibition at 100 μM (MRP2) [%] | inhibition at 100 μM (MRP3) [%] | IC50 (MATE1; IC50, MATE1, isolated alkaloids, mean [95% CI], three technical replicates) | IC50 (BCRP) [µM] | inhibition at 100 μM (OAT3; cell line (HEK293 or MDCKII) stably expressing OAT3) [%] | IC50 (MATE1) [µM] | inhibition at 100 μM (BCRP) [%] |
| --- | --- | --- | --- | --- | --- | --- | --- | --- | --- | --- | --- | --- | --- | --- | --- | --- |
| COc1ccc2c(c1OC)C(=O)O[C@@H]2[C@H]1c2cc3c(cc2CCN1C)OCO3 [(−)-β-Hydrastine, (1R,9S)-(−)-β-Hydrastine] | -- (inhibition not observed) | 203 | -- (inhibition not observed) | -- (inhibition not observed) | -- (inhibition not observed) | 110 | 86.2 |  |  |  |  |  |  |  |  |  |
| COc1ccc2cc3[n+](cc2c1OC)CCc1cc2c(cc1-3)OCO2 [Berberine, berberine chloride] | -- (inhibition not observed) |  |  |  |  |  |  | 79 | < 20 | < 20 | < 20 | < 1 µM and 0.73 µM | 180 |  |  |  |
| CN1CCc2cc3c(cc2C1O)OCO3 (stereo not drawn) [Hydrastinine, hydrastinine chloride monohydrate] | -- (inhibition not observed) |  |  |  |  |  |  |  | < 20 | < 20 | < 20 |  |  | < 20 | 82 | < 20 |
